Data: patent publication US20250120941A1, “Composition for Promoting the Assimilation of an Oligosaccharide” (MORINAGA MILK INDUSTRY CO., LTD., priority 2021, published 2025)

Experiments:
[1] = tested on: bifidobacterial strains in infant fecal samples (feces A, feces B); test: Fecal culture: bifidobacterial count by quantitative PCR (Test Example 3); type: cell-based, human infant; conditions: after seven hours of culture, group without tocopherols = 1
Procedure: The feces A and the feces B prepared in Test Example 1 described above were used as fecal samples.
To imitate the environment of the large intestine, a culture experiment was conducted by the following procedures. Bio Jr. 8 100 mLx8 culture apparatus (BJR-25NA1S-8M manufactured by Biott Corporation) was used, and the operations were according to the instructions of the device. The medium components except for the tocopherols and the oligosaccharides were dissolved in purified water and sterilized in an autoclave, and the tocopherols and the oligosaccharides which were dissolved in dimethyl sulfoxide (DMSO, FUJIFILM Wako Pure Chemical Corporation) and in purified water, respectively, and which were then sterilized with a filter were added to the mixture after the autoclave treatment. The culture temperature was 37° C., and the anaerobic condition was maintained during the culture period by blowing filter-sterilized CO2 into the culture vessels. After adjusting the pH to 7.0, 100 μL (10 mg in terms of feces) of the fecal samples, which were diluted with physiological saline, were added, and anaerobic culture was started. To imitate the pH in the large intestine of an infant, the pH was controlled by neutralizing with 1M Na2CO3 when the pH became lower than 5.5 during the culture period. The media were collected 7 hours after starting the culture and centrifuged at 8000 rpm for 3 min at 4° C., and the supernatants and the precipitates were collected.
Using GENE PREP STAR PI-480 automated isolation system (Kurabo Industries Ltd. Japan), DNA was extracted from the precipitates collected in (2). Using the extracted DNA as templates and using the primers of SEQ ID NO: 1 (ctcctggaaacgggtgg) and SEQ ID NO: 2 ([…]), quantitative PCR was conducted with Applied Bio systems 7500 Fast & 7500 Real-Time PCR System (manufactured by Thermo Fisher), and the bacterial counts of bifidobacterial strains were measured. The PCR conditions were 40 cycles of denaturation at 95° C. for 5 seconds, subsequent annealing at 55° C. for 20 seconds and elongation at 72° C. for 30 seconds.
The bacterial counts of bifidobacterial strains after seven hours of culture, which were measured by the quantitative PCR, are shown in Table 5. The bacterial counts are the relative values where the bacterial counts of the groups without the addition of the tocopherols are regarded as 1.

[2] = tested on: intestinal bacteria of infant fecal sample (feces B); test: Fecal culture: oligosaccharide residual rate in culture supernatant (Test Example 1); type: cell-based, human infant
Procedure: Fecal samples were obtained from two healthy infants (feces A from an infant and feces B from an infant). The samples were collected immediately after the defecation and immediately moved to 10° C. or lower under an anaerobic condition. The collected feces were diluted with 10 times the amount of physiological saline within eight hours of the defecation and stored at −80° C. until use.
To imitate the environment of the large intestine, a culture experiment was conducted by the following procedures. Bio Jr. 8 100 mLx8 culture apparatus (BJR-25NA1S-8M manufactured by Biott Corporation) was used, and the operations were according to the instructions of the device. The medium components except for the tocopherols and the oligosaccharides were dissolved in purified water and sterilized in an autoclave. The tocopherols and the oligosaccharides which were dissolved in dimethyl sulfoxide (DMSO, FUJIFILM Wako Pure Chemical Corporation) and in purified water, respectively, and which were then sterilized with a filter were added to the medium after the autoclave treatment. The culture temperature was 37° C., and the anaerobic condition was maintained during the culture period by blowing filter-sterilized CO2 into the culture vessels. […]

Row | SMILES | bifidobacterial Count (Relative Value) ([1]; Feces A) | bifidobacterial Count (Relative Value) ([1]; Feces B) | 2′-FL Residual Rate ([2]; after 7-hr culture, YCFA medium, before culture = 100) | assimilation of 2′-fucosyllactose (in words) ([2]; after seven hours of culture)
1 | C[C@@H]1O[C@@H](O[C@H]2[C@H](O[C@H]3[C@H](O)[C@@H](O)C(O)O[C@@H]3CO)O[C@H](CO)[C@H](O)[C@@H]2O)[C@@H](O)[C@H](O)[C@@H]1O (stereo partly drawn) [Comparative Example 1, 2′-Fucosyllactose] | 1 | 1 | 114 mass % | remained in the supernatant without being assimilated
2 | CC(=O)N[C@H]1[C@H]([C@H](O)[C@H](O)CO)O[C@@](OC[C@H]2O[C@@H](O[C@H]3[C@H](O)[C@@H](O)[C@H](O)O[C@@H]3CO)[C@H](O)[C@@H](O)[C@H]2O)(C(=O)O)C[C@@H]1O [Comparative Example 9, 6′-Sialyllactose] | 1 | 1 | – | –
